Experimental data taken from patent publication US20250382289A1, “PYRAZOLOPYRIDINE DERIVATIVE AND APPLICATION THEREOF IN MEDICINE” (XIZANG HAISCO PHARMACEUTICAL CO., LTD., priority 2022, published 2025).
Read-outs that look alike come from different tables or passages of the source.

Experiments:
MDA-MB-436 cells = assay: Clone formation test of MDA-MB-436 cells; format: cell-based; conditions: 14 days, crystal violet, OD 570 nm, read-out: IC50 (nM), inhibitory activity on MDA-MB-436 cell clones
Experimental: In this experiment, MDA-MB-436 cells were treated by adding a test compound to detect the ability of cell clone formation. At the beginning of the experiment, MDA-MB-436 cells (ATCC, HTB-130) were added to a 96-well plate (Corning, 3599), with 500 cells per well, and they were subjected to adherent culture overnight. The next day, the compound diluted in a gradient was added, and culture was continued in a […] incubator at 37° C. On the 7th day, the old culture medium was discarded, and the test compound diluted in a gradient was added again. At the 14th day, the 96-well plate was taken out, the culture liquid was discarded, and cell clones were detected by Crystal violet Assay kit. PHERAstar FSX microplate reader (BMG LABTECH) was used for detection of OD at 570 nm. The IC50 value was calculated using GraphPad Prism software.

USP1/UAF1 = USP1/UAF1 (Homo sapiens (Human), UniProt O94782); assay: Inhibitory activity on USP1/UAF1 enzymology (ubiquitin rhodamine 110 substrate); format: biochemical; conditions: 0.5 nM USP1/UAF1, 500 nM ubiquitin rhodamine 110
Experimental: Ubiquitin rhodamine 110 was used as a substrate to detect the activity of the deubiquitinating enzyme USP1/UAF1 after drug treatment. The total test system was 20 μl, and the test buffer comprises 50 mM Tris-HCl (pH 7.8), 0.5 mM EDTA, 0.01% Bovine Serum Albumin, 1 mM DTT, and 0.01% Tween-20. At the beginning of the experiment, 0.5 nM USP1/UAF1 (Bio-Techne, E-568-050) protein was added to a 384-well plate (PerkinElmer, 6008269), and the test compound diluted in a gradient was then added. After incubation at room temperature for 10 min, 500 nM ubiquitin rhodamine 110 (Bio-Techne, U-555-050) was added, and the mixture was incubated at room temperature for 20 min. Enspire™ Multilabel Reader microplate reader (PerkinElmer) was used for detection at excitation light of 485 nm/emission light of 535 nm. The IC50 value was calculated using GraphPad Prism software.

[1] = Pharmacokinetic test in mice; format: in vivo, ICR mice; conditions: plasma, i.g. 10 mg/kg
Experimental: Experimental animals: Male ICR mice, 25-30 g, were purchased from Chengdu Ddossy Experimental Animals Co., Ltd.
Experimental design: On the day of the experiment, the ICR mice were randomly grouped according to their body weights. The animals were fasted with water available for 12 to 14 h one day before the administration, and were fed 4 h after the administration.
Before and after the administration, blood was taken from the orbit of the animals at specified time points and placed in an EDTAK2 centrifuge tube. The blood was centrifuged at 5000 rpm and 4° C. for 10 min to collect plasma. The blood collection time points for the intravenous group and intragastric administration group were: 0, 5 min, 15 min, 30 min, 1 h, 2 h, 4 h, 7 h, and 24 h. Before analysis and detection, all samples were stored below −60° C. The samples were analyzed quantitatively by LC-MS/MS.

[2] = Pharmacokinetic test in beagle dogs; format: in vivo; conditions: i.g. 5 mg/kg
Experimental: Experimental objective: a single dose of test compounds was administered to beagle dogs intravenously and intragastrically, and the concentrations of the test compounds in plasma of the beagle dogs were measured to evaluate pharmacokinetic characteristics of the test compounds in the beagle dogs.
Experimental animals: male beagle dogs, about 8-11 kg, were purchased from Beijing Marshall Biotechnology Co., Ltd.
Experimental method: On the day of the experiment, the beagle dogs were randomly grouped according to their body weights. The animals were fasted but with water available for 14 to 18 hours one day before administration, and were fed 4 hours after administration. The administration was performed based on the information in the following table.
Vehicle for intravenous administration: 5% DMA+5% Solutol+90% Saline; Vehicle for intragastric administration: 0.5% MC
(DMA: dimethylacetamide; Solutol: polyethylene glycol-60-hydroxystearate; Saline: physiological saline; MC: Methylcellulose solution)
Sampling: Before and after the administration, blood was taken from the jugular veins or limb veins, and placed in an EDTAK2 centrifuge tube. Centrifugation was performed at 5000 rpm at 4° C. for 10 min, and plasma was collected.
Time points for blood collection: 0, 5 min, 15 min, 30 min, 1 h, 2 h, 4 h, 6 h, 8 h, 10 h, 12 h, 24 h, 48 h, and 72 h. Before analysis and detection, all the samples were stored at −60° C. or lower. The samples were analyzed quantitatively by LC-MS/MS.

[3] = Homo sapiens, MDA-MB-436, 336 h

USP1/UAF1, sequence (O94782 whole entry): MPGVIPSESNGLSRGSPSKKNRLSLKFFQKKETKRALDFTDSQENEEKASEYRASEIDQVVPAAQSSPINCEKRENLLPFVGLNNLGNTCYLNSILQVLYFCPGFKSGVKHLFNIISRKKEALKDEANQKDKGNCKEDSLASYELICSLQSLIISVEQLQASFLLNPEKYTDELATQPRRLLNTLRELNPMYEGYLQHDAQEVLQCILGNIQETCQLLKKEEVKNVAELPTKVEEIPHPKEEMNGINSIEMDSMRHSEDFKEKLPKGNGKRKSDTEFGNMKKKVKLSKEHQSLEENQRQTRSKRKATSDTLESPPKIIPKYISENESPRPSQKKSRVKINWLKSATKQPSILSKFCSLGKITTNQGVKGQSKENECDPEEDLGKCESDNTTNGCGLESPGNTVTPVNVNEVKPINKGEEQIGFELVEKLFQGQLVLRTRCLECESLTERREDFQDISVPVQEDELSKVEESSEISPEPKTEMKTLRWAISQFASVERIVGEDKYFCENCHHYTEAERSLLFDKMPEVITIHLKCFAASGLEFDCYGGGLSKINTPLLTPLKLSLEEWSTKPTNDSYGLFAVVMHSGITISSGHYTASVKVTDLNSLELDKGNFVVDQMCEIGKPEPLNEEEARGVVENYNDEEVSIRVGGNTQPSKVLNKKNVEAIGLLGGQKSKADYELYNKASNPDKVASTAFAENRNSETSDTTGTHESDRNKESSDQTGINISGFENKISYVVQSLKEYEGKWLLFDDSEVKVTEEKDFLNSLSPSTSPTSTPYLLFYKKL
USP1/UAF1, sequence (Q8TAF3 whole entry partner): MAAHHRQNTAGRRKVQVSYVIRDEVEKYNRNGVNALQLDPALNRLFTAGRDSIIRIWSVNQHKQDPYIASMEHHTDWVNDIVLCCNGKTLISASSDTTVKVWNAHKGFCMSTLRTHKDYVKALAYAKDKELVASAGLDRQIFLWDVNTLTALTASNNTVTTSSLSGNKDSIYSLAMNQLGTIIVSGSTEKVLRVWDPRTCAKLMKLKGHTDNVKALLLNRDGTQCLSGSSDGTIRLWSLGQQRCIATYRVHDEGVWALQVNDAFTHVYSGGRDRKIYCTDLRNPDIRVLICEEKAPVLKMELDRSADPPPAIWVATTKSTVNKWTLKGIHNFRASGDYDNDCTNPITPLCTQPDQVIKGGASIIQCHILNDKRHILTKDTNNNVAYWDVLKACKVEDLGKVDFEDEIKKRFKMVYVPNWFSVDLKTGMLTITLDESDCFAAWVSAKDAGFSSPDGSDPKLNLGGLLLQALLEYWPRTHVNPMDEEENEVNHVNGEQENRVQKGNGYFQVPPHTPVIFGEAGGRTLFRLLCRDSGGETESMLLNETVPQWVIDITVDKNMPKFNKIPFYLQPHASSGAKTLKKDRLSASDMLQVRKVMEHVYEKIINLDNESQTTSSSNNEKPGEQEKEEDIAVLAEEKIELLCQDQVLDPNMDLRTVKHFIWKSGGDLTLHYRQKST

Compound	IC50 (USP1/UAF1) [nM]	Oral absorption [1]	IC50 (MDA-MB-436 cells; [3]) [nM]	also measured
CC(C)n1cc(C(F)(F)F)nc1C12CCC(Cn3ncc4cnc(-c5c(OC(F)F)ncnc5C5CC5)c(F)c43)(CC1)CC2 [Compound 4]	< 20	–	–	IC50 (MDA-MB-436 cells): < 200 nM
C#CCn1cc(C(F)(F)F)nc1C12CCC(Cn3ncc4cnc(-c5c(OC)ncnc5C5CC5)c(F)c43)(CC1)CC2 [Compound 8]	–	Yes	–	–
COc1ncnc(C2CC2)c1-c1ncc2cnn(CC34CCC(c5nc(C(F)(F)F)cn5C(C)C)(CC3)CC4)c2c1F [Compound 2]	< 20	Yes	–	IC50 (MDA-MB-436 cells): < 200 nM; F (%) [2]: 41.2%; AUC0-t ([2]; plasma): 6302 ng·h/mL
[2H]C([2H])([2H])C([2H])(n1cc(C(F)(F)F)nc1C12CCC(Cn3ncc4cnc(-c5c(OC(F)F)ncnc5C5CC5)c(F)c43)(CC1)CC2)C([2H])([2H])[2H] [Compound 15]	–	–	< 200	–
Fc1c(-c2c(OC(F)F)ncnc2C2CC2)ncc2cnn(Cc3ccc(-c4nc(C(F)(F)F)c5n4CC(F)(F)C5)cc3)c12 [Compound 14]	–	Yes	–	–
Fc1c(-c2c(OC(F)F)ncnc2C2CC2)ncc2cnn(CC34CCC(c5nc(C(F)(F)F)cn5CC5CC5)(CC3)CC4)c12 [Compound 10]	–	–	< 200	–
COc1ncnc(C2CC2)c1-c1ncc2cnn(Cc3ccc(-c4nc(C(F)(F)F)cn4C(C)C)cc3)c2c1F [Compound 1]	< 20	Yes	–	IC50 (MDA-MB-436 cells): < 200 nM
COc1ncnc(C2CC2)c1-c1ncc2cnn(Cc3ccc(-c4nc(C(F)(F)F)cn4C(C)C)cc3)c2n1 [Control compound A, reference compound]	–	–	–	bioavailability ([2]; male, dog, plasma, po): 15.8%; AUC0-t ([2]; male, dog, po, plasma, read-out: AUC0-t): 994 ng·h/mL
Fc1c(-c2c(OC(F)F)ncnc2C2CC2)ncc2cnn(Cc3ccc(-c4nc(C(F)(F)F)c5n4CC4(CC4)C5)cc3)c12 [Compound 12]	–	Yes	–	–

More lines, main results first:

IC50 (USP1/UAF1) [nM]	Oral absorption [1]	IC50 (MDA-MB-436 cells; [3]) [nM]	Compound	also measured
< 20	Yes	< 200	C#CCn1cc(C(F)(F)F)nc1-c1ccc(Cn2ncc3cnc(-c4c(OC)ncnc4C4CC4)c(F)c32)cc1 [Compound 16]	–
–	Yes	–	COc1ncnc(C2CC2)c1-c1ncc2cnn(Cc3ccc(-c4nc(C(F)(F)F)c5n4CC4(CC4)C5)cc3)c2c1F [Compound 21]	–
–	–	< 200	CC(C)n1cc(C(F)(F)F)nc1-c1ccc(Cn2ncc3cnc(-c4c(OC(F)F)ncnc4C4CC4)c(F)c32)cc1 [Compound 20]	–
–	Yes	< 200	COc1ncnc(C2CC2)c1-c1ncc2cnn(Cc3ccc(-c4nc(C(F)(F)F)c5n4[C@@H](C)CC5)cc3)c2c1F [Compound 22]	–
